Data reported in patent US10757937B2, “Sulfonamides that activate ABA receptors” (The Regents of the University of California, priority 2014, dated 2020).

Legend:
Test in all cases: receptor-mediated PP2C (HAB1) inhibition in vitro assay
Format in all cases: biochemical
PYL9 = target: T1, PYL9 (Arabidopsis thaliana, UniProt Q84MC7); conditions: for IC50: Table VII, read-out: PP2C Dose Curves PYL9 (IC50); for remaining activity at 25 µM: compound at 25 μM, control without agonist = 100%
T1 construct: 6X-His; made in house; host or cells: E. coli BL21[DE3]pLysS
T1 sequence (Q84MC7 1-187): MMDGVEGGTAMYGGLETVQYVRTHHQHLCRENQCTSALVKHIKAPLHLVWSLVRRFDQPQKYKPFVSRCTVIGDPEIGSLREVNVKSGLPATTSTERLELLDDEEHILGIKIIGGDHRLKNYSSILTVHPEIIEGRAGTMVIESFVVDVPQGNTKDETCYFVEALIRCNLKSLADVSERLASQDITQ
T1 sequence (Q9CAJ0 23-511 partner): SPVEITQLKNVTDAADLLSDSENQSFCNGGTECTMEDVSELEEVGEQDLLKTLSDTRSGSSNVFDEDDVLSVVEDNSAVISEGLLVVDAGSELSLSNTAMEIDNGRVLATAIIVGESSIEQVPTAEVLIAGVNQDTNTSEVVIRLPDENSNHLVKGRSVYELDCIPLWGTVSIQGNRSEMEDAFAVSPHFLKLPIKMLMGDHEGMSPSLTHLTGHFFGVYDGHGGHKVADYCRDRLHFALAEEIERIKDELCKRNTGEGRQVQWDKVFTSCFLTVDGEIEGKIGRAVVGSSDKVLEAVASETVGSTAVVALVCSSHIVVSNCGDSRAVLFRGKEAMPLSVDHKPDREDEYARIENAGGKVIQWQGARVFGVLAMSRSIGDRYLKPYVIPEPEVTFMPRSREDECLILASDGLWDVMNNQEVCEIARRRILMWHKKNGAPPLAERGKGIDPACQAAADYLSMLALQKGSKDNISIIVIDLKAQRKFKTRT
In short: (§1)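 Fluorogenic readout: 4-methylumbelliferyl-phosphate hydrolysis by 50 nM GST-HAB1 plus 2:1 His-receptor; Tris-OAc pH 7.9, NaCl, 1 mM MnCl2, β-ME. Compounds at 25 μM or 50 uM single dose; IC50 from dose curves for selected compounds.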

PYL11 = target: T2, PYL11 (Arabidopsis thaliana, UniProt Q9FJ50); conditions: Table VII; read-out: PP2C Dose Curves PYL11 (IC50)
T2 construct: made in house; host or cells: E. coli BL21[DE3]pLysS
T2 sequence (Q9FJ50 1-161): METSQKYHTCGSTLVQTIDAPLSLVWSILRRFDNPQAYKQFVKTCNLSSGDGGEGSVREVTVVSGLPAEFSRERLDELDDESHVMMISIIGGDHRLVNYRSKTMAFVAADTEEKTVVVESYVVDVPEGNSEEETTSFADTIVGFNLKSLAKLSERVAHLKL
T2 sequence (Q9CAJ0 23-511 partner): T1 sequence (Q9CAJ0 23-511 partner)
In short: (§2)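 His-tagged receptors (MBP fusion for PYL11) at 2:1 ratio to 50 nM GST-HAB1 in 100 mM Tris-OAc pH 7.9, 100 mM NaCl, 1 mM MnCl2; 4-methylumbelliferyl-phosphate fluorogenic substrate. Compounds at 50 uM (ABA 10 uM); IC50 from dose curves for selected compounds.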

PYL6 = target: T3, PYL6 (Arabidopsis thaliana, UniProt Q8S8E3); conditions: Table VII; read-out: PP2C Dose Curves PYL6 (IC50)
T3 construct: 6X-His; made in house; host or cells: E. coli BL21[DE3]pLysS
T3 sequence (Q8S8E3 1-215): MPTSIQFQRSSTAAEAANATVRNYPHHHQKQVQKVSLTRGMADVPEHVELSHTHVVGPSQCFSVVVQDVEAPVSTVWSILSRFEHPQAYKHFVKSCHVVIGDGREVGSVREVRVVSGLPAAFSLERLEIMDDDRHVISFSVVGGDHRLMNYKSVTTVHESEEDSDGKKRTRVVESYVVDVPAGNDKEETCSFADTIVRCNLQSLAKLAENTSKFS
T3 sequence (Q9CAJ0 23-511 partner): T1 sequence (Q9CAJ0 23-511 partner)
In short: as §2

PYL5 = target: T4, PYL5 (Arabidopsis thaliana, UniProt Q9FLB1); conditions: for IC50: Table VII, read-out: PP2C Dose Curves PYL5 (IC50); for remaining activity at 25 µM: compound at 25 μM, control without agonist = 100%; for PYL5 agonist potency and selectivity: compounds with cyclopropyl rings at alpha carbon
T4 construct: 6X-His; made in house; host or cells: E. coli BL21[DE3]pLysS
T4 sequence (Q9FLB1 1-203): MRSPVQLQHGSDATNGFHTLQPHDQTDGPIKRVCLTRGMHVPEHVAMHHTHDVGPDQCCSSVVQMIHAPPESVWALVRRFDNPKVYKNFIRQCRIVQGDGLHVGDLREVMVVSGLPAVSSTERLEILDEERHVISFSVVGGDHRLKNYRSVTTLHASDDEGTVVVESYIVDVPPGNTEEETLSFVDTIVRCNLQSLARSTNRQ
T4 sequence (Q9CAJ0 23-511 partner): T1 sequence (Q9CAJ0 23-511 partner)
In short: as §1

PYL2 = target: T5, PYL2 (Arabidopsis thaliana, UniProt O80992); conditions: Table VII; read-out: PP2C Dose Curves PYL2 (IC50)
T5 construct: 6X-His; made in house; host or cells: E. coli BL21[DE3]pLysS
T5 sequence (O80992 1-190): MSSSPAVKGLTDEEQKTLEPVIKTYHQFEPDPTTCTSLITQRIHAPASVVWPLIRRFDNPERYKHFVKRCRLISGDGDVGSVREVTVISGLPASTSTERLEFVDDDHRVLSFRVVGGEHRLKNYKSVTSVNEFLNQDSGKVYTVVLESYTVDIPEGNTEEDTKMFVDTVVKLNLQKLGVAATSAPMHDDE
T5 sequence (Q9CAJ0 23-511 partner): T1 sequence (Q9CAJ0 23-511 partner)
In short: as §2

Row | IC50 (PYL9) [µM] | remaining activity at 25 µM (PYL9) [%] | IC50 (PYL11) [µM] | IC50 (PYL6) [µM] | IC50 (PYL5) [µM] | remaining activity at 25 µM (PYL5) [%] | IC50 (PYL2) [µM] | Structure (SMILES) | PYL9 agonist potency and selectivity (PYL9; five- and six-membered rings at alpha carbon) | PYL5 agonist potency and selectivity (PYL5)
1 | 21.1 | 50 | 13.3 | 12.2 | 2.48 | 18 | > 50 | Cc1ccccc1C1(C(=O)NS(=O)(=O)Cc2ccc(C#N)cc2)CC1 [Compound 44] |  | potent and relatively selective PYL5 agonists
2 | 28.2 | 46 | > 50 |  |  | 95 |  | Cc1cccc(C2(C(=O)NS(=O)(=O)Cc3ccc(C#N)cc3)CCCC2)c1 [Compound 43] |  | 
3 | 7.11 | 18 | 7.52 |  |  | 105 |  | N#Cc1ccc(CS(=O)(=O)NC(=O)C2(c3cccc(F)c3)CCCC2)cc1 [Compound 26] |  | 
4 | 6.69 | 21 | 12.7 |  |  | 102 |  | N#Cc1ccc(CS(=O)(=O)NC(=O)C2(c3ccccc3F)CCCC2)cc1 [Compound 25] |  | 
5 | 17.4 | 42 | 14.7 | > 50 | 29.4 | 45 |  | COc1ccccc1C1(C(=O)NS(=O)(=O)Cc2ccc(C#N)cc2)CCC1 [Compound 42] |  | 

The remaining lines, values behind:

Row | Structure (SMILES) | IC50 (PYL9) [µM] | remaining activity at 25 µM (PYL9) [%] | IC50 (PYL11) [µM] | IC50 (PYL6) [µM] | IC50 (PYL5) [µM] | remaining activity at 25 µM (PYL5) [%] | IC50 (PYL2) [µM] | PYL9 agonist potency and selectivity (PYL9; five- and six-membered rings at alpha carbon) | PYL5 agonist potency and selectivity (PYL5)
6 | N#Cc1ccc(CS(=O)(=O)NC(=O)C2(c3ccc(F)cc3)CCCCC2)cc1 [Compound 51] | 0.04 | 8 | 5.33 | > 50 | > 50 | 97 |  | potent and relatively selective PYL9 agonists | 
7 | CC(C)(C(=O)NS(=O)(=O)Cc1ccc(C#N)cc1)c1ccc(Cl)c(Cl)c1 [Compound 7] | 18.5 | 38 | 13.9 | > 50 | 10.7 | 33 | > 50 |  | 
8 | N#Cc1ccc(CS(=O)(=O)NC(=O)C2(c3cccc(C#N)c3)CC2)cc1 [Compound 50] | 5.76 | 18 | 2.52 | 2.43 | 0.39 | 7 | 54.7 |  | potent and relatively selective PYL5 agonists
9 | CC(C)(C(=O)NS(=O)(=O)Cc1ccc(C#N)cc1)c1cccc(C#N)c1 [Compound 18] | 8.29 | 34 | 14.9 | 12.6 | 1.95 | 12 | > 50 |  | 
10 | N#Cc1ccc(CS(=O)(=O)NC(=O)C2(c3ccc(F)cc3)CC2)cc1 [Compound 35] | 27.2 | 49 | 3.29 | 34.7 | 3.91 | 20 |  |  | 
11 | CC(C)(C(=O)NS(=O)(=O)Cc1ccc([N+](=O)[O-])cc1)c1ccccc1 [Compound 3] | 3 | 18 | 1.94 | 45.5 | 29.5 | 47 |  |  | 
12 | N#Cc1ccc(CS(=O)(=O)NC(=O)C2(c3ccc(Br)cc3)CC2)cc1 [Compound 30] | > 50 | 69 | 4.63 | > 50 | 0.86 | 12 | > 50 |  | potent and relatively selective PYL5 agonists
13 | N#Cc1ccc(CS(=O)(=O)NC(=O)C2(c3ccccc3)CCC2)cc1 [Compound 29] | 1.27 | 14 | 1.77 | > 50 | > 50 | 90 |  |  | 
14 | N#Cc1ccc(CS(=O)(=O)NC(=O)C2(c3ccc(F)cc3)CCC2)cc1 [Compound 32] | 1.4 | 12 | 2.25 | > 50 | > 50 | 74 |  |  | 
15 | CC(C)(C(=O)NS(=O)(=O)Cc1ccc(C#N)cc1)c1ccccc1 [Compound 23] | 1.88 |  | 7.84 | > 50 | 39.6 |  |  |  | 
